Results taken from patent US8987249B2, “Substituted 2-Aza-bicyclo[2.2.1]heptane-3-carboxylic acid (benzyl-cyano-methyl)-amides inhibitors of Cathepsin C” (Boehringer Ingelheim International GmbH, priority 2013, dated 2015).

molecular target: recombinant human DPPI (Cathepsin C) (Homo sapiens (Human), UniProt P53634); assay: Inhibition of human DPPI (Cathepsin C); assay type: biochemical; conditions: substrate Gly-Arg-AMC
Procedure: Inhibition of Human DPPI (Cathepsin C)
Bovine serum albumin (BSA; Prod. No. A3059) and Dithiothreitol (DTT; Prod. No D0632) were from Sigma. […] The DPP1 inhibitor Gly-Phe-DMK was purchased from MP Biomedicals (Prod.-No. 03DK00625). The recombinant human DPPI was purchased from Prozymex. All other materials were of highest grade commercially available.
The following buffers were used: MES buffer: 25 mM MES, 50 mM NaCl, 5 mM DTT, adjusted to pH 6.0, containing 0.1% BSA; TAGZyme Buffer: 20 mM NaH2PO4, 150 mM NaCl adjusted to pH 6.0 with HCl
Then, 5 μL of substrate in MES buffer (final concentration 50 μM) were added. The microtiter plates were then incubated at room temperature for 30 min. Then, the reaction was stopped by adding 10 μL of Gly-Phe-DMK in MES-buffer (final concentration 1 μM).
The analysis of the data was performed by calculating the percentage of fluorescence in the presence of test compound in comparison to the fluorescence of the vehicle control after subtracting the background fluorescence using the following formula: (RFU(sample)−RFU(background))*100/(RFU(control)−RFU(background))
Data from these calculations were used to generate IC50 values for inhibition of DPPI, respectively.

Sequence of recombinant human DPPI (Cathepsin C) (P53634 231-394): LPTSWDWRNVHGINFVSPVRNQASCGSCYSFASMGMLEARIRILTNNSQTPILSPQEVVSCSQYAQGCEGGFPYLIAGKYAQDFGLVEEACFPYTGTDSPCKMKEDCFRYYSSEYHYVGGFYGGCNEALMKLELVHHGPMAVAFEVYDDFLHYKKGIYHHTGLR
Sequence of recombinant human DPPI (Cathepsin C) (P53634 395-463): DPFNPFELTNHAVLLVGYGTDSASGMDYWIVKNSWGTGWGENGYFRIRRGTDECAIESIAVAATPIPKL
Sequence of recombinant human DPPI (Cathepsin C) (P53634 25-134): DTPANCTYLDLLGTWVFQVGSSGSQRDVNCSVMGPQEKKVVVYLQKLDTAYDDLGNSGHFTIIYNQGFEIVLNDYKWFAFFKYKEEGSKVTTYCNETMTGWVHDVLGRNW

| Compound | IC50 [nM] |
| --- | --- |
| CCc1ncc(-c2ccc(C[C@@H](C#N)NC(=O)[C@H]3N[C@H]4C[C@@H]3[C@@H]3C[C@@H]34)c(F)c2)s1 [Example 113] | 36.4 |
| N#C[C@H](Cc1ccc(-c2csc(C(=O)N3CCN(C4CC4)CC3)c2)cc1F)NC(=O)[C@H]1N[C@@H]2CC[C@H]1C2 [Example 229] | 1.7 |
| N#CC(Cc1ccc(-c2ccoc2)cc1F)NC(=O)[C@H]1N[C@@H]2CC[C@H]1C2 (stereo partly shown) [Example 103] | 24.9 |
| N#C[C@H](Cc1ccc(-c2cccc(C(N)=O)c2)cc1F)NC(=O)[C@H]1N[C@H]2C[C@@H]1[C@@H]1C[C@@H]12 [Example 146] | 30.5 |
| N#C[C@H](Cc1ccc(-c2ccco2)cc1F)NC(=O)[C@H]1N[C@@H]2CC[C@H]1C2 [Example 73] | 11.2 |
| COCCN1CCN(C(=O)c2cc(-c3ccc(C[C@@H](C#N)NC(=O)[C@H]4N[C@@H]5CC[C@H]4C5)c(F)c3)cs2)CC1 [Example 228] | 1.6 |
| N#CC(Cc1cccc2[nH]c(=O)c3ccccc3c12)NC(=O)[C@H]1N[C@@H]2CC[C@H]1C2 (stereo partly drawn) [Example 128, (1S,2S,4R)—N-[1-cyano-2-(6-oxo-5H-phenanthridin-1-yl)ethyl]-3-azabicyclo[2.2.1]heptane-2-carboxamide] | 2390 |
| N#C[C@H](Cc1ccc2ccccc2c1)NC(=O)[C@H]1N[C@@H]2CC[C@H]1C2 [Example 220] | 253 |
| N#CC(Cc1ccc2c(cnc3ccccc32)c1)NC(=O)[C@H]1N[C@@H]2CC[C@H]1C2 (stereo partly shown) [Example 316] | 42.4 |
| N#CC(Cc1ccc2oc3ccccc3c2c1)NC(=O)[C@H]1N[C@@H]2CC[C@H]1C2 (stereo partly shown) [Example 212] | 296 |
| CN1CCN(C(=O)c2cc(-c3ccc(C[C@@H](C#N)NC(=O)[C@H]4N[C@@H]5CC[C@H]4C5)c(F)c3)cs2)CC1 [Example 225] | 0.8 |
| N#C[C@H](Cc1ccc(N2CCN(C3CCOCC3)CC2)cc1F)NC(=O)[C@H]1N[C@@H]2CC[C@H]1C2 [Example 336] | 24.5 |
| CN1CCO[C@@H]2CN(c3ccc(C[C@@H](C#N)NC(=O)[C@H]4N[C@@H]5CC[C@H]4C5)c(F)c3)C[C@@H]21 [Example 355] | 22.4 |
| COC(=O)c1ccc(-c2ccc(C[C@@H](C#N)NC(=O)[C@H]3N[C@@H]4CC[C@H]3C4)c(F)c2)o1 [Example 175] | 6.3 |
| N#C[C@H](Cc1ccc2c(c1F)CCC(N1CCOCC1)C2)NC(=O)[C@H]1N[C@@H]2CC[C@H]1C2 (stereo partly shown) [Example 351] | 82.8 |
| CC1(C)CCN(c2ccc(C[C@@H](C#N)NC(=O)[C@H]3N[C@@H]4CC[C@H]3C4)c(F)c2)CC1 [Example 195] | 14.7 |
| N#C[C@H](Cc1cc(-c2cccc(O)n2)ccc1F)NC(=O)[C@H]1N[C@@H]2CC[C@H]1C2 [Example 317] | 52 |
| N#CC(Cc1ccc2[nH]ncc2c1)NC(=O)[C@H]1N[C@@H]2CC[C@H]1C2 (stereo partly drawn) [Example 8, (1S,2S,4R)—N-[1-cyano-2-(1H-indazol-5-yl)ethyl]-3-azabicyclo[2.2.1]heptane-2-carboxamide] | 679 |
| CC(=O)Nc1ccc(-c2ccc(C[C@@H](C#N)NC(=O)[C@H]3N[C@H]4C[C@@H]3[C@@H]3C[C@@H]34)c(F)c2)cc1 [Example 131] | 139 |

| Compound | IC50 [nM] |
| --- | --- |
| CCCNC(=O)c1cc(-c2ccc(C[C@@H](C#N)NC(=O)[C@H]3N[C@@H]4CC[C@H]3C4)c(F)c2)cs1 [Example 164] | 2.3 |
| CN1CCO[C@@H]2CCN(c3ccc(C[C@@H](C#N)NC(=O)[C@H]4N[C@@H]5CC[C@H]4C5)c(F)c3)C[C@@H]21 [Example 356] | 20 |
| COCC(=O)n1cc(-c2ccc(C[C@@H](C#N)NC(=O)[C@H]3N[C@@H]4CC[C@H]3C4)c(F)c2)cn1 [Example 87] | 14.2 |
| Cc1nn(C)cc1-c1ccc(C[C@@H](C#N)NC(=O)[C@H]2N[C@@H]3CC[C@H]2C3)c(F)c1 [Example 160] | 1.7 |
| CN1CCO[C@H]2CN(c3ccc(C[C@@H](C#N)NC(=O)[C@H]4N[C@@H]5CC[C@H]4C5)c(F)c3)CC[C@@H]21 [Example 357] | 33.8 |
| Cn1cc(-c2ccc(C[C@@H](C#N)NC(=O)[C@H]3N[C@@H]4CC[C@H]3C4)c(F)c2)cn1 [Example 163] | 2.1 |
| N#C[C@H](Cc1ccc(-c2csc(C(=O)N3CCN(CC(F)(F)F)CC3)c2)cc1F)NC(=O)[C@H]1N[C@@H]2CC[C@H]1C2 [Example 232] | 2.2 |
| N#C[C@H](Cc1ccc(C2CCN(C3CCOC3)CC2)cc1F)NC(=O)[C@H]1N[C@@H]2CC[C@H]1C2 (stereo partly shown) [Example 337] | 28.2 |
| N#C[C@H](Cc1ccc(-c2ccc(C(=O)N3CCCCC3)cc2)cc1F)NC(=O)[C@H]1N[C@@H]2CC[C@H]1C2 [Example 210] | 49.4 |
| N#C[C@H](Cc1ccc(N2CCC3CN(C4CCOC4)CC32)cc1F)NC(=O)[C@H]1N[C@@H]2CC[C@H]1C2 (stereo partly shown) [Example 354] | 6.8 |
| CCOc1cc(-c2ccc(C[C@@H](C#N)NC(=O)[C@H]3N[C@@H]4CC[C@H]3C4)c(F)c2)cc(S(C)(=O)=O)c1 [Example 275] | 33 |
| CN(C)C(=O)c1cc(-c2ccc(C[C@@H](C#N)NC(=O)[C@H]3N[C@@H]4CC[C@H]3C4)c(F)c2)cs1 [Example 170] | 4.2 |
| CCOc1nc(-c2ccc(C[C@@H](C#N)NC(=O)[C@H]3N[C@@H]4CC[C@H]3C4)c(F)c2)cs1 [Example 172] | 5.2 |
| N#C[C@H](Cc1ccc(N2C3CCC2CN(C2CCOC2)C3)cc1F)NC(=O)[C@H]1N[C@@H]2CC[C@H]1C2 (stereo partly shown) [Example 329] | 7 |
| N#Cc1cc2c(cc1C(F)(F)F)[nH]c(=O)c1cc(CC(C#N)NC(=O)[C@H]3N[C@@H]4CC[C@H]3C4)ccc12 (stereo partly shown) [Example 302] | 4.7 |
| N#C[C@H](Cc1ccc(-n2cc(C(=O)N3CCOCC3)cn2)cc1F)NC(=O)[C@H]1N[C@@H]2CC[C@H]1C2 [Example 287] | 39.7 |
| CC(C)N1CCC(c2ccc(C[C@@H](C#N)NC(=O)[C@H]3N[C@@H]4CC[C@H]3C4)c(F)c2)CC1 [Example 280] | 21.2 |
| CN(C)C(=O)c1cnn(-c2ccc(C[C@@H](C#N)NC(=O)[C@H]3N[C@@H]4CC[C@H]3C4)c(F)c2)c1 [Example 286] | 38.9 |
| CN1C(=O)Cc2ccc(-c3ccc(CC(C#N)NC(=O)[C@H]4N[C@@H]5CC[C@H]4C5)c(O)c3)cc21 (stereo partly shown) [Example 120] | 55.6 |

molecular target: recombinant human Cathepsin K (Homo sapiens (Human), UniProt P43235); assay: Inhibition of human Cathepsin K; assay type: biochemical; conditions: substrate Z-Gly-Pro-Arg-AMC
Sequence (P43235 115-329): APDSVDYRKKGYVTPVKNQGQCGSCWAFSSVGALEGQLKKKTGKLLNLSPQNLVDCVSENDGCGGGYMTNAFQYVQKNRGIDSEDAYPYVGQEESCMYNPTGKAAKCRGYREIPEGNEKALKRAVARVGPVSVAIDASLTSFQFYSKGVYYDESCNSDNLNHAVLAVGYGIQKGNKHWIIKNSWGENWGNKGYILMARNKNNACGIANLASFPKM
Source text: Inhibition of Human Cathepsin K
Materials: Microtiterplates (Optiplate-384 F were purchased from PerkinElmer (Prod. No. 6007270). The substrate Z-Gly-Pro-Arg-AMC was from Biomol (Prod.-No. P-142). L-Cysteine (Prod. No. 168149) was from Sigma. Sodium acetate was from Merck (Prod.-No. 6268.0250), EDTA was from Fluka (Prod.-No. 03680). The inhibitor E-64 was purchased from Sigma (Prod.-No. E3132). The recombinant human Cathepsin K proenzyme was purchased from Biomol (Prod. No. SE-367). All other materials were of highest grade commercially available.
The following buffers were used: Activation buffer: 32.5 mM sodium acetate, adjusted to pH 3.5 with HCl; Assay buffer: 150 mM sodium acetate, 4 mM EDTA, 20 mM L-Cysteine, adjusted to pH 5.5 with HCl,
To activate the proenzyme, 5 μl procathepsin K were mixed with 1 ul activation buffer, and incubated at room temperature for 30 min.
5 μL test compound (final concentration 0.1 nM to 100 μM) in aqua bidest (containing 4% DMSO, final DMSO concentration 1%) were mixed with 10 uL of Cathepsin K in assay buffer (final concentration 2 ng/μL) and incubated for 10 min. […] The plates were then incubated at room temperature for 60 min. Then, the reaction was stopped by adding 10 μL of E64 in assay buffer (final concentration 1 μM). The fluorescence in the wells was determined using a Molecular Devices SpectraMax M5 Fluorescence Reader (Ex 360 nm, Em 460 nm).
Each assay microtiter plate contains wells with vehicle controls (1% DMSO in bidest) as reference for non-inhibited enzyme activity (100% Ctl; high values) and wells with inhibitor (E64 in bidest+1% DMSO, final concentration […]) as controls for background fluorescence (0% Ctl; low values). The analysis of the data was performed by calculating the percentage of fluorescence in the presence of test compound in comparison to the fluorescence of the vehicle control after subtracting the background fluorescence: (RFU(sample)−RFU(background))*100/(RFU(control)−RFU(background))
Data from these calculations were used to generate IC50 values for inhibition of Cathepsin K, respectively.

| Compound | IC50 [nM] |
| --- | --- |
| CCc1ncc(-c2ccc(C[C@@H](C#N)NC(=O)[C@H]3N[C@H]4C[C@@H]3[C@@H]3C[C@@H]34)c(F)c2)s1 [Example 113] | 8300 |
| N#C[C@H](Cc1ccc(-c2csc(C(=O)N3CCN(C4CC4)CC3)c2)cc1F)NC(=O)[C@H]1N[C@@H]2CC[C@H]1C2 [Example 229] | 1600 |
| N#CC(Cc1ccc(-c2ccoc2)cc1F)NC(=O)[C@H]1N[C@@H]2CC[C@H]1C2 (stereo partly shown) [Example 103] | 5900 |
| N#C[C@H](Cc1ccc(-c2cccc(C(N)=O)c2)cc1F)NC(=O)[C@H]1N[C@H]2C[C@@H]1[C@@H]1C[C@@H]12 [Example 146] | 9600 |
| N#C[C@H](Cc1ccc(-c2ccco2)cc1F)NC(=O)[C@H]1N[C@@H]2CC[C@H]1C2 [Example 73] | 3100 |
| CC(C)n1cc(-c2ccc(CC(C#N)NC(=O)[C@H]3N[C@@H]4CC[C@H]3C4)c(F)c2)cn1 (stereo partly shown) [Example 68] | 7300 |
| COCCN1CCN(C(=O)c2cc(-c3ccc(C[C@@H](C#N)NC(=O)[C@H]4N[C@@H]5CC[C@H]4C5)c(F)c3)cs2)CC1 [Example 228] | 2000 |
| Cc1c(-c2ccc(C[C@@H](C#N)NC(=O)[C@H]3N[C@@H]4CC[C@H]3C4)c(F)c2)cnn1C [Example 39] | 7800 |
| COc1cccc(-c2cn(-c3ccc(C[C@@H](C#N)NC(=O)[C@H]4N[C@@H]5CC[C@H]4C5)c(F)c3)nn2)c1 [Example 94] | 4900 |
| Cc1c(-c2ccc(C[C@@H](C#N)NC(=O)[C@H]3N[C@@H]4CC[C@H]3C4)c(F)c2)cnn1C [Example 65] | 11700 |
| Cc1cc(-c2ccc(C[C@@H](C#N)NC(=O)[C@H]3N[C@@H]4CC[C@H]3C4)c(F)c2)n(C)n1 [Example 63] | 6200 |
